Data: publication PMC5319852 (Biochemistry, 2016)

Biological target: Plasmodium vivax geranylgeranyl diphosphate synthase (PvGGPPS) (Plasmodium vivax, UniProt A5K4U6)
Test: X-ray co-crystal structure
Assay type: biochemical

CCCCCCCCCCOc1cccc(COc2ccc([N+](=O)[O-])cc2C(=O)O)c1 [BPH-1186]
IC50: 50 µM
